Measured values: PMC6874883 (Biochemistry, 2019)
Values joined by “and” are separate entries in the source; they are usually repeats but may differ in a detail not shown here. Equal entries are not always repeated. Blank lines part the entries; values can stand above or below the molecule they belong to.

What was measured:
[1] = biological target: T1, procaspase-6 (Homo sapiens, UniProt P55212); assay type: binding
T1 sequence (P55212 1-293): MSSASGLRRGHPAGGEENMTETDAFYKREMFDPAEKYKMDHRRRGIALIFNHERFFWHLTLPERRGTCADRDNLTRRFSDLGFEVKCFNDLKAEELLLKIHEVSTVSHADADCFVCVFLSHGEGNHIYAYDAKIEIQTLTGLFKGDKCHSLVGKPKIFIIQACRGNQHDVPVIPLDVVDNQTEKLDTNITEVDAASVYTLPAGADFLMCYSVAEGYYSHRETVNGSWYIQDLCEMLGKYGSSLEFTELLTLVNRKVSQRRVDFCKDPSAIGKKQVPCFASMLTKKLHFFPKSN

[2] = biological target: T2, caspase-6 ΔN D179CT (Homo sapiens, UniProt P55212); experiment: Effect of ATP on the activity of cleaved, active caspase-6; assay type: biochemical; conditions: increasing ATP concentrations (0-40 mM), 1.5 h, 37 °C, 60 μM VEID-AMC
T2 sequence (P55212 24-179): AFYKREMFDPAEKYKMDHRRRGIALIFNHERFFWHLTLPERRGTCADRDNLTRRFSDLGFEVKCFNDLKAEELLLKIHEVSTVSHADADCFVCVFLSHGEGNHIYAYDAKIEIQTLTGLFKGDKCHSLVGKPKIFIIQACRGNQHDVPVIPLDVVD
T2 sequence (P55212 194-293): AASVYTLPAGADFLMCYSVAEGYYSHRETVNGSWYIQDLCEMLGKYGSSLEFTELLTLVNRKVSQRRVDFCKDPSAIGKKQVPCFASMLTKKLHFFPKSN

[3] = biological target: T3, procaspase-6, Caspase-6 FL N-terminally (His)6 (Homo sapiens, UniProt P55212); experiment: biochemical
T3 sequence (P55212 1-293): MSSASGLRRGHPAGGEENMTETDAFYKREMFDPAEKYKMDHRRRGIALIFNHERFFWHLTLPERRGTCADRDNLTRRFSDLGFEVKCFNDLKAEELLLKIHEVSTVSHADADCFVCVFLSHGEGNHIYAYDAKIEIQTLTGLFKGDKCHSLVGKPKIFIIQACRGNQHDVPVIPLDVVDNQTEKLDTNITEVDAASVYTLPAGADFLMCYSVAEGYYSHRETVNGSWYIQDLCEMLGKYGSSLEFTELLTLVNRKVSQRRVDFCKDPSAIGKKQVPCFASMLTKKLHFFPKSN

[4] = biological target: procaspase-6 (inactive C163S zymogen); conditions: SPR; cited from earlier work
[5] = biological target: T4, procaspase-6 C163S (Homo sapiens, UniProt P55212, C163S); experiment: ATPAc labeling of K133, C163S variant expressed in E. coli; assay type: binding; conditions: full-length zymogen; defined as 100%
T4 sequence (P55212 1-293 C163S): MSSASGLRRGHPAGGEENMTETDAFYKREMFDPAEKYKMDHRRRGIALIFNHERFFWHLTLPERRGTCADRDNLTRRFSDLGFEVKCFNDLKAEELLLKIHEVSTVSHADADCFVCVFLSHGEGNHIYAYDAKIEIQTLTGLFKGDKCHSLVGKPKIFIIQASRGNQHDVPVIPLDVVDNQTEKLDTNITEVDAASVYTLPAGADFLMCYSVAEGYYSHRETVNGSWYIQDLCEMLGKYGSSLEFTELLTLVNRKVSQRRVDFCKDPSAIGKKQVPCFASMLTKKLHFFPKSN

[6] = biological target: T5, procaspase-6 Y198A (Homo sapiens, UniProt P55212, Y198A); experiment: ATPAc labeling of K133, Y198A variant expressed in E. coli; assay type: binding; conditions: zymogen processed to mature Y198A caspase-6; relative to C163S = 100%
T5 sequence (P55212 24-179): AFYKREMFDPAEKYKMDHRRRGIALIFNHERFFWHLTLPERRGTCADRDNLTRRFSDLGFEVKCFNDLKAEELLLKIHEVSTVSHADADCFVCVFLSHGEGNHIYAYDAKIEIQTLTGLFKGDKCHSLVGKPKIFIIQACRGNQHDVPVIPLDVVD
T5 sequence (P55212 194-293 Y198A): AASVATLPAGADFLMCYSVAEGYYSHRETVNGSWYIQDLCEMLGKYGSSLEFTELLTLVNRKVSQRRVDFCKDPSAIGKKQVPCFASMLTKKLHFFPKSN

[7] = biological target: T6, procaspase-6 Y198A/C163S (Homo sapiens, UniProt P55212, C163S/Y198A); experiment: ATPAc labeling of K133, Y198A/C163S variant expressed in E. coli; assay type: binding; conditions: full-length procaspase-6; relative to C163S = 100%
T6 sequence (P55212 1-293 C163S/Y198A): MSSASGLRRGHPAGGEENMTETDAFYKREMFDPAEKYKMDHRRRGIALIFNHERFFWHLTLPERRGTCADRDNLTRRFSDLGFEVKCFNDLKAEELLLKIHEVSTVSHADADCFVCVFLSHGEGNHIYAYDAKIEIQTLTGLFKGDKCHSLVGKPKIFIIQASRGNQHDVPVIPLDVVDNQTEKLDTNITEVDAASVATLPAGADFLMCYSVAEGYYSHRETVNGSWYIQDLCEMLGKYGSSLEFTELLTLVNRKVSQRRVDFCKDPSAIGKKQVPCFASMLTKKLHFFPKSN

[8] = biological target: T7, caspase-6 (Homo sapiens, UniProt P55212); experiment: Caspase activity assay, kinetic parameters with VEID-AMC substrate; assay type: biochemical; conditions: 100 nM enzyme, VEID-AMC 0-500 μM, 37 °C
T7 sequence (P55212 24-179): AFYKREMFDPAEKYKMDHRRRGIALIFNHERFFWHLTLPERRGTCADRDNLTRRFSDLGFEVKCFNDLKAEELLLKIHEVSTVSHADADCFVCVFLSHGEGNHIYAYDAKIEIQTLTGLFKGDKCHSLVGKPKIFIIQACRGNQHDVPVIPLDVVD
T7 sequence (P55212 194-293): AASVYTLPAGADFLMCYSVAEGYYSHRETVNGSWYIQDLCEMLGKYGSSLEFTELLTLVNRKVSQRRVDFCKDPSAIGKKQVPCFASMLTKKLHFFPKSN

Molecule: Nc1cc2ccccc2c(O)n1 [compound 3, 3-aminoisoquinolin-1-ol]
IC50 [1]: > 1000 µM
Kd [4]: 1.8 µM and ~1.8 µM

Molecule: Nc1ncnc2c1ncn2[C@H]1C[C@H](O)[C@@H](COP(=O)(O)OP(=O)(O)OP(=O)(O)O)O1 [dATP]
inhibition of probe acylation (immunoblot) ([1]; immunoblot experiment, at ≤100 mM): no significant inhibition

B1: Y198A: mature active caspase-6 Y198A variant, recombinant, expressed in E. coli (protein, UniProt P55212 1-293, looked up, variant Y198A)
chain: MSSASGLRRGHPAGGEENMTETDAFYKREMFDPAEKYKMDHRRRGIALIFNHERFFWHLTLPERRGTCADRDNLTRRFSDLGFEVKCFNDLKAEELLLKIHEVSTVSHADADCFVCVFLSHGEGNHIYAYDAKIEIQTLTGLFKGDKCHSLVGKPKIFIIQACRGNQHDVPVIPLDVVDNQTEKLDTNITEVDAASVATLPAGADFLMCYSVAEGYYSHRETVNGSWYIQDLCEMLGKYGSSLEFTELLTLVNRKVSQRRVDFCKDPSAIGKKQVPCFASMLTKKLHFFPKSN
kcat [8]: 2.84 ± 0.04 s⁻¹

Continued, values first:

IC50 [1]: 1000 to 3000 µM
Ki [1]: ~2000 µM
activity of mature caspase-6 [2]: not affected
IC50 [3]: 19000 ± 800 µM
Molecule: Nc1ncnc2c1ncn2[C@@H]1O[C@H](COP(=O)(O)OP(=O)(O)OP(=O)(O)O)[C@@H](O)[C@H]1O [ATP, adenosine triphosphate]

inhibition of K133 acylation by acyl phosphate probes ([1]; resting Jurkat lysates pretreated 15 min with nucleotide (5 mM)): inhibited
Molecule: Nc1nc2c(ncn2[C@@H]2O[C@H](COP(=O)(O)OP(=O)(O)OP(=O)(O)O)[C@@H](O)[C@H]2O)c(=O)[nH]1 [GTP, guanosine triphosphate]

acylation of K133 [5]: 100%
acylation of K133 [6]: 1.9%
acylation of K133 [7]: 1.7%
Molecule: desthiobiotin acyl phosphate of ATP [ATPAc]
